# Results: the supplement of paper PMC10307832
# Tests used:
# Assay in all cases: relative viability (nuclei count vs DMSO), 5 days (fraction); higher = more cells survive
# Apatinib + Tozasertib = compound: N#CC1(c2ccc(NC(=O)c3cccnc3NCc3ccncc3)cc2)CCCC1 [Apatinib] + Cc1cc(Nc2cc(N3CCN(C)CC3)nc(Sc3ccc(NC(=O)C4CC4)cc3)n2)n[nH]1 [Tozasertib] (partner 0.1 µM)
# In short: (§1)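 Lung cancer cell lines in 1536-well plates were dosed by pin tool the day after seeding, either with one drug alone or with a fixed anchor-drug dose plus five library-drug doses (not always all listed) in √10 steps. After 5 days, cells were fixed and their nuclei stained in one step (final 0.05% Triton X-100, 1% formaldehyde, 1 ug/ml Hoechst), then counted on 4× images. Relative viability is the nuclei count in treated wells divided by that in vehicle wells. Values are medians of duplicate plates.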
# Apatinib + Pemetrexed = compound: N#CC1(c2ccc(NC(=O)c3cccnc3NCc3ccncc3)cc2)CCCC1 [Apatinib] + Nc1nc2[nH]cc(CCc3ccc(C(=O)N[C@@H](CCC(=O)O)C(=O)O)cc3)c2c(=O)[nH]1 [Pemetrexed] (partner 0.2 µM)
# In short: as §1
# Apatinib + Bortezomib = compound: N#CC1(c2ccc(NC(=O)c3cccnc3NCc3ccncc3)cc2)CCCC1 [Apatinib] + CC(C)C[C@H](NC(=O)[C@H](Cc1ccccc1)NC(=O)c1cnccn1)B(O)O [Bortezomib] (partner 0.002 µM)
# In short: as §1
# Metformin + Dasatinib = compound: CN(C)C(=N)NC(=N)N [Metformin] + Cc1nc(Nc2ncc(C(=O)Nc3c(C)cccc3Cl)s2)cc(N2CCN(CCO)CC2)n1 [Dasatinib] (partner 0.075 µM)
# In short: as §1
Cell Line,relative viability (Apatinib + Tozasertib; first compound 0.08 µM),relative viability (Apatinib + Tozasertib; first compound 0.253 µM),relative viability (Apatinib + Tozasertib; first compound 0.8 µM),relative viability (Apatinib + Tozasertib; first compound 2.53 µM),relative viability (Apatinib + Tozasertib; first compound 8 µM),relative viability (Apatinib + Pemetrexed; first compound 0.08 µM),relative viability (Apatinib + Pemetrexed; first compound 0.253 µM),relative viability (Apatinib + Pemetrexed; first compound 0.8 µM),relative viability (Apatinib + Pemetrexed; first compound 2.53 µM),relative viability (Apatinib + Pemetrexed; first compound 8 µM),relative viability (Apatinib + Bortezomib; first compound 0.08 µM),relative viability (Apatinib + Bortezomib; first compound 0.253 µM),relative viability (Apatinib + Bortezomib; first compound 0.8 µM),relative viability (Apatinib + Bortezomib; first compound 2.53 µM),relative viability (Apatinib + Bortezomib; first compound 8 µM),relative viability (Metformin + Dasatinib; first compound 10 µM),relative viability (Metformin + Dasatinib; first compound 31.62 µM),relative viability (Metformin + Dasatinib; first compound 100 µM),relative viability (Metformin + Dasatinib; first compound 316.23 µM),relative viability (Metformin + Dasatinib; first compound 1000 µM)
NCI-H647,0.288,0.503,0.19,0.144,0.206,0.176,0.172,0.165,0.139,0.127,1.27,1.33,1.01,0.736,0.823,0.226,0.231,0.567,0.221,0.212
NCI-H661,0.333,0.325,0.357,0.388,0.392,0.933,0.853,0.911,0.917,0.892,0.935,0.855,0.685,0.764,0.584,,0.895,0.995,0.828,0.893
HCC-366,0.11,0.0735,0.0616,0.0574,0.0476,0.192,0.159,0.129,0.121,0.0888,1.16,1.1,0.948,0.926,1.09,0.565,0.566,0.632,0.568,0.81
HOP-62,0.442,0.403,0.329,0.257,0.192,0.333,0.31,0.289,0.244,0.16,1.06,,0.62,0.672,0.738,0.748,0.664,0.687,0.713,0.655
HCC-827,0.381,0.388,0.43,0.413,0.311,0.254,0.25,0.247,0.231,0.258,0.977,0.907,1.07,1.05,1.09,,0.317,0.356,0.317,0.316
NCI-H1395,0.734,0.832,0.722,0.661,0.52,0.913,0.802,0.881,0.685,0.635,,,,,,0.438,0.483,0.493,0.385,0.509
SK-MES-1,0.972,0.928,0.729,0.77,0.484,0.976,0.915,0.937,0.757,0.568,,,,,,0.252,0.41,0.338,0.314,0.321
NCI-H2023,0.43,0.307,0.195,0.162,0.135,0.212,0.278,0.2,0.191,0.204,1.02,1.09,1.02,0.858,0.856,0.599,0.618,0.703,0.493,0.662
NCI-H1299,,,,,,,,,,,1.06,1.02,0.987,1.03,0.908,,,,,
LCLC-97TM1,0.226,0.255,0.173,0.2,0.165,0.179,0.139,0.161,0.141,0.146,0.774,0.775,0.508,0.344,0.574,0.739,0.734,0.591,0.529,0.725
NCI-H1993,0.637,0.619,0.605,0.583,0.595,0.593,0.566,0.605,0.549,0.549,1.2,1.11,0.781,1,1.07,0.764,0.59,0.665,0.639,0.703
PC-3 [JPC-3],0.904,0.871,0.78,0.814,0.681,,1.05,1.05,0.726,0.807,0.832,0.773,0.713,0.716,0.813,0.944,0.889,0.979,0.886,0.986
NCI-H441,0.672,0.569,0.538,0.533,0.428,0.302,0.274,0.261,0.205,0.192,0.615,0.481,0.592,0.322,0.217,,0.577,0.609,0.385,0.544
NCI-H322M,0.454,0.426,0.437,0.441,0.503,0.605,0.633,0.623,0.593,0.54,1.23,1.19,1.05,1.24,1.25,0.326,0.318,0.31,0.305,0.245
NCI-H1651,0.753,0.756,0.717,0.34,0.362,0.552,0.555,0.556,0.531,0.483,0.799,0.955,0.922,0.912,0.861,0.757,0.349,0.346,0.361,0.464
EKVX,0.369,0.404,0.395,0.224,0.135,0.434,0.357,0.379,0.342,0.346,0.941,1.21,0.967,0.98,1.01,,0.856,0.598,0.671,0.779
CAL-12T,0.298,0.34,0.241,0.198,0.191,1.38,1.25,1.1,0.897,0.917,1.11,0.908,1.06,0.819,1.09,0.471,0.58,0.479,0.357,0.515
NCI-H358,0.113,0.103,0.0953,0.108,0.0888,0.173,0.165,0.233,0.163,0.128,,,,,,0.143,0.127,0.118,0.212,0.14
PC-14,0.7,0.65,0.536,0.562,0.493,0.142,0.133,0.124,0.0984,0.0405,0.984,1.01,0.79,0.776,0.834,0.337,0.285,0.253,0.235,0.233
NCI-H650,0.769,0.777,0.724,0.644,0.486,1.02,0.924,0.89,0.799,0.597,0.888,0.835,0.834,0.543,0.754,0.466,0.438,0.339,0.502,0.332
NCI-H2405,0.911,0.759,0.685,0.607,0.604,1.15,1.1,1.08,0.898,0.867,0.891,0.99,0.961,0.954,0.961,0.272,0.265,0.253,0.272,0.255

Cell Line,relative viability (Apatinib + Tozasertib; first compound 0.08 µM),relative viability (Apatinib + Tozasertib; first compound 0.253 µM),relative viability (Apatinib + Tozasertib; first compound 0.8 µM),relative viability (Apatinib + Tozasertib; first compound 2.53 µM),relative viability (Apatinib + Tozasertib; first compound 8 µM),relative viability (Apatinib + Pemetrexed; first compound 0.08 µM),relative viability (Apatinib + Pemetrexed; first compound 0.253 µM),relative viability (Apatinib + Pemetrexed; first compound 0.8 µM),relative viability (Apatinib + Pemetrexed; first compound 2.53 µM),relative viability (Apatinib + Pemetrexed; first compound 8 µM),relative viability (Apatinib + Bortezomib; first compound 0.08 µM),relative viability (Apatinib + Bortezomib; first compound 0.253 µM),relative viability (Apatinib + Bortezomib; first compound 0.8 µM),relative viability (Apatinib + Bortezomib; first compound 2.53 µM),relative viability (Apatinib + Bortezomib; first compound 8 µM),relative viability (Metformin + Dasatinib; first compound 10 µM),relative viability (Metformin + Dasatinib; first compound 31.62 µM),relative viability (Metformin + Dasatinib; first compound 100 µM),relative viability (Metformin + Dasatinib; first compound 316.23 µM),relative viability (Metformin + Dasatinib; first compound 1000 µM)
NCI-H2228,0.268,0.221,0.225,0.164,0.0952,0.324,0.312,0.356,0.208,0.192,1.27,1.17,1.17,1.02,0.93,0.519,0.576,0.438,0.458,0.55
H3255,0.775,0.697,0.795,0.521,0.435,0.521,0.545,0.537,0.518,0.533,0.729,0.791,0.657,0.612,0.723,0.391,0.344,0.232,0.402,0.315
EBC-1,,,,,,,,,,,0.577,0.782,0.605,0.395,0.359,,,,,
NCI-H1648,0.484,0.346,0.563,0.366,0.197,0.681,0.613,0.706,0.548,0.691,,,,,,,,,,
NCI-H522,0.48,0.487,0.693,0.504,0.567,0.986,0.975,0.993,0.66,0.748,,,,,,1.07,1.15,1.18,1.02,1.07
NCI-H1792,,,,,,0.984,0.722,0.993,0.558,0.447,0.917,1.05,0.957,0.906,0.968,,1.05,0.982,0.754,0.756
NCI-H1944,0.23,0.229,0.239,0.238,0.223,0.687,0.562,0.501,0.456,0.51,,,,,,0.22,0.227,0.252,0.254,0.246
NCI-H2170,0.86,0.879,0.677,0.652,0.51,0.288,0.275,0.262,0.224,0.251,,,,,,0.514,0.625,0.619,0.664,0.634
Calu-6,,,,,,,,,,,0.969,1.12,0.96,0.789,0.814,,,,,
SW 900,0.504,0.54,0.442,0.323,0.2,0.486,0.467,0.427,0.379,0.321,,,,,,0.844,0.989,0.73,0.825,0.766
NCI-H1703,,,,,,,,,,,0.325,0.297,0.257,0.175,0.154,,,,,
NCI-H2342,0.527,0.492,0.53,0.455,0.373,0.731,0.73,0.744,0.733,0.737,,,,,,0.315,0.291,0.326,0.285,0.356
LK-2,0.159,0.195,0.183,0.152,0.175,0.255,0.243,0.255,0.181,0.134,,,,,,0.447,0.424,0.381,0.383,0.558
NCI-H1793,0.38,0.369,0.245,0.209,0.226,1.1,0.932,0.871,0.726,0.633,,,,,,0.38,,0.42,0.342,0.515
NCI-H727,0.676,0.631,0.545,0.559,0.488,,,,,,0.684,0.706,0.62,0.599,0.716,0.399,0.451,0.478,,0.49
NCI-H1623,0.45,0.454,0.451,0.417,0.407,,,,,,,,,,,0.376,0.518,0.511,0.627,0.478
ABC-1,,0.177,0.165,0.178,0.191,,,,,,,0.333,0.311,0.335,0.316,0.414,0.73,0.659,0.316,0.31
NCI-H1563,,,,,,0.622,0.765,0.795,0.708,0.681,0.762,0.963,0.811,0.737,0.762,0.535,0.573,0.574,0.545,0.489
IA-LM,,,,,,,,,,,0.952,0.976,0.839,0.536,0.183,,,,,
HCC-44,1.23,1.12,0.75,0.844,0.494,0.677,0.626,0.616,0.63,0.521,1.01,0.951,0.894,0.753,0.856,,,,,
